The source of these data is ChEMBL document CHEMBL1201862, “PubChem BioAssay data set” (2004).

Some test systems named below: 786-0; A498; BT-549; DU-145; EKVX; HT-29; K562; MCF7; OVCAR-4; PC-3; RPMI-8226; RXF 393; SK-MEL-5; SNB-75; SW-620; T47D; TK-10; U-251; UACC-62; UO-31.
Holding throughout (experiment): growth of human tumour cells (NCI), 48 h

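Interpolation was linear, between the two tested concentrations surrounding the appropriate level; five concentrations were tested over 48 hours in 96-well plates. GI50 is the concentration that inhibits growth by half.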 Activity calls are given as the source filed them. No stated cut-off is given here; in the data, active = GI50 up to about 1.1 µM and inactive = higher.

With `COC(=O)C[C@](O)(CCCC(C)(C)O)C(=O)O[C@@H]1C(OC)=C[C@]23CCCN2CCc2cc4c(cc2[C@H]13)OCO4` [OMACETAXINE MEPESUCCINATE], the GI50 was 0.893 µM (active) in the assay on 786-0; 0.0395 µM (active) in the assay on A498; 3.6 µM (inactive) in the assay on BT-549; 0.741 µM (active) in the assay with DU-145; 0.133 µM (active) in the assay on EKVX; 0.115 µM (active) with HT-29. Further, the GI50 in the assay on K562 is 0.0397 µM (active); with MCF7 it was 0.015 µM (active); in the assay on OVCAR-4 it was 0.342 µM (active); in the assay with PC-3, 3.01 µM (inactive); in the assay on RPMI-8226 it was 0.0388 µM (active); in the assay with RXF 393, 0.107 µM (active). Moreover, the GI50 was 0.117 µM (active) with SK-MEL-5; 0.102 µM (active) with SNB-75; 0.0682 µM (active) with SW-620; 0.383 µM (active) in the assay on T47D; 3.74 µM (inactive) with TK-10; 0.0571 µM (active) in the assay with U-251. Besides, the GI50 was 0.113 µM (active) in the assay with UACC-62 and 0.546 µM (active) in the assay with UO-31.
For the compound `CC(C)(C)n1c(=O)n2c(-c3ccccc3)c(-c3ccccc3)n2c1=O`, the GI50 in the assay on 786-0 was 57.5 µM (inactive); in the assay with A498 it was > 100 µM (inactive); in the assay on BT-549, 53.7 µM (inactive); in the assay on DU-145, > 100 µM (inactive); in the assay with EKVX, > 100 µM (inactive); with HT-29, 66.7 µM (inactive). The GI50 was 1.24 µM (inactive) in the assay on K562; 56.6 µM (inactive) in the assay with MCF7; 72.6 µM (inactive) with OVCAR-4; 44.7 µM (inactive) with PC-3; 17.1 µM (inactive) in the assay with RPMI-8226; 76 µM (inactive) with RXF 393. Further, the GI50 in the assay with SK-MEL-5 is 71.8 µM (inactive); in the assay on SNB-75, > 100 µM (inactive); in the assay on SW-620, > 100 µM (inactive); in the assay on T47D, > 100 µM (inactive); with TK-10, > 100 µM (inactive); in the assay with U-251 it was > 100 µM (inactive). Further, the GI50 in the assay with UACC-62 is > 100 µM (inactive); in the assay with UO-31, 12.5 µM (inactive).
Take `CCn1c(SCC(=O)N/N=C2\SCC(=O)N2c2ccc(C)cc2)nc2ccccc2c1=O`: the GI50 with 786-0 was 19.1 µM (inactive); in the assay on A498, 20.8 µM (inactive); in the assay on BT-549 it was > 10 µM (inactive); in the assay with DU-145 it was 28.2 µM (inactive); in the assay on EKVX it was 22.4 µM (inactive); in the assay with HT-29, 16.5 µM (inactive). Also, the GI50 is 29.2 µM (inactive) in the assay on K562; 20.6 µM (inactive) with MCF7; 18.2 µM (inactive) with OVCAR-4; 21.3 µM (inactive) in the assay on PC-3; 18.5 µM (inactive) in the assay with RPMI-8226; 17.4 µM (inactive) in the assay on RXF 393. Besides, the GI50 in the assay on SK-MEL-5 was 22.9 µM (inactive); in the assay with SNB-75, 17.1 µM (inactive); in the assay on SW-620 it was 33.7 µM (inactive); in the assay with T47D, 25.1 µM (inactive); in the assay with TK-10 it was 15 µM (inactive); in the assay on U-251, 20.7 µM (inactive). Further, the GI50 in the assay with UACC-62 is 15.3 µM (inactive); with UO-31, 15.1 µM (inactive).
